Reference: patent US11952384B2, “Anti-tumor compound and preparation method and use thereof” (DUALITY BIOLOGICS (SUZHOU) CO., LTD., priority 2020, dated 2024)

Test system: Colo205 cells
Assay: Inhibition of in vitro proliferation of tumor cells by compounds (CTG, 6 days)
Assay type: cell-based
Conditions: Homo sapiens, COLO 205, 144 h, Table 4, Test Example 2.4, small molecule fragments, 6 days of culture
Procedure: To test the inhibitory activity of the pharmaceutical compounds on the in vitro proliferation of NCI-N87 and Colo205 tumor cells. The cells were treated with compounds at different concentrations in vitro, and after 6 days of culture, the proliferation of cells was detected using CTG (CellTiter-Glo® Luminescent Cell Viability Assay, Promega, Cat. No. G7558) reagents, and the in vitro activity of the compounds was evaluated according to the IC50 value. • 1. Culturing of cells: NCI-N87/Colo205 cells were cultured in RPMI-1640 medium containing 10% FBS. • 2. Preparation of cells: NCI-N87/Colo205 cells in logarithmic phase were taken, washed with PBS once, and digested with 2-3 mL of trypsin for 2-3 min. After the cells were digested completely, 10-15 mL of cell culture was added to elute the digested cells. The eluate was centrifuged at 1000 rpm for 5 min, and the supernatant was discarded. […] Sample adding: the prepared samples to be detected at different concentrations were added to the culture plate, and two duplicate wells were set for each sample. […] Plate reading: the 96-well cell culture plate was taken out, placed in a microplate reader, and measured for the chemiluminescence using the microplate reader. Data analysis: data were processed and analyzed using Microsoft Excel and Graphpad Prism 5.

CC[C@@]1(O)C(=O)OCc2c1cc1n(c2=O)Cc2c-1nc1cc(F)c(C)c3c1c2[C@@H](NC(=O)C[C@@H](C)O)CC3 [P-III-20, (R)—N-((1S,9S)-9-ethyl-5-fluoro-9-hydroxy-4-methyl-10,13-dioxo-2,3,9,10,13,15-hexahydro-1H,12H-benzo[de]pyrano[3′,4′: 6,7]indolizino[1,2-b]quinolin-1-yl)-3-hydroxybutanamide]
IC50: 20 nM
